In ChEMBL document CHEMBL4842344, “Design, synthesis and biological activity evaluation of novel scopoletin-NO donor derivatives against MCF-7 human breast cancer in vitro and in vivo” (Eur J Med Chem, 2021):
Active and inactive are the calls of the source. The calls are words filed in the database; no cut-off is given here.

Legend:
MCF7 [1] = assay: Potency index, ratio of scopoletin derivative 5 IC50 to test compound IC50 for human MCF7 cells assessed as inhibition of cell growth measured after 48 hrs by MTT assay; format: functional
MDA-MB-231 = assay: Antiproliferative activity against human MDA-MB-231 cells assessed as inhibition of cell growth measured after 48 hrs by MTT assay; format: functional, cell-based; conditions: MDA-MB-231, 48 h
[2] = Toxicity in BALB/c mouse xenografted with human MCF7 cells assessed as effect on spleen at 30 to 60 mg/kg, ip measured after 21 days by hematoxylin and eosin staining based histopathological analysis; format: organism-based; conditions: in vivo, 504 h, dose 30-60 mg/kg, time 21 day
MCF7 [3] = assay: Induction of cell cycle arrest in human MCF7 cells assessed as accumulation of cells in G2/M phase at 0.25 to 1 uM measured after 24 hrs by propidium iodide staining based flow cytometry analysis (Rvb= 19.7%); format: functional; conditions: dose 0.25-1 µM
[4] = Toxicity in BALB/c mouse xenografted with human MCF7 cells assessed as weight loss at 30 to 60 mg/kg, ip measured after 21 days; format: organism-based; conditions: in vivo, 504 h, dose 30-60 mg/kg, time 21 day
[5] = Toxicity in BALB/c mouse xenografted with human MCF7 cells assessed as effect on heart at 30 to 60 mg/kg, ip measured after 21 days by hematoxylin and eosin staining based histopathological analysis; format: organism-based; conditions: in vivo, 504 h, dose 30-60 mg/kg, time 21 day
MCF7 [6] = assay: Induction of apoptosis in human MCF7 cells assessed as upregulation of Bax expression at 0.5 to 2 uM measured after 24 hrs by western blot analysis; format: functional, cell-based; conditions: dose 0.5-2 µM
MCF7 [7] = assay: Induction of apoptosis in human MCF7 cells assessed as dead cells at 0.5 uM measured after 24 hrs by Annexin-V FITC/PI staining based flow cytometry analysis (Rvb= 0.06%); format: functional
MCF7 [8] = assay: Induction of cell cycle arrest in human MCF7 cells assessed as accumulation of cells in G1 phase at 0.5 uM measured after 24 hrs by propidium iodide staining based flow cytometry analysis (Rvb= 54.96%); format: functional
MCF7 [9] = assay: Induction of apoptosis in human MCF7 cells assessed as early apoptotic cells at 0.25 uM measured after 24 hrs by Annexin-V FITC/PI staining based flow cytometry analysis (Rvb= 1.33%); format: functional
MCF7 [10] = assay: Induction of apoptosis in human MCF7 cells assessed as downregulation of Bcl-2 expression at 0.5 to 2 uM measured after 24 hrs by western blot analysis; format: functional, cell-based; conditions: dose 0.5-2 µM
MCF7 [11] = assay: Antiproliferative activity against human MCF7 cells assessed as inhibition of cell growth measured after 48 hrs by MTT assay; format: functional, cell-based; conditions: MCF7, 48 h
MCF7 [12] = assay: Inhibition of PI3K/AKT signalling pathway in human MCF7 cells assessed as reduction in AKT expression at 0.5 to 2 uM measured after 24 hrs by western blot analysis; format: cell-based; conditions: dose 0.5-2 µM
MCF7 [13] = assay: Antitumor activity against human MCF7 cells xenografted in ip dosed BALB/c nude mouse assessed as tumor growth inhibition administered once every 2 days for 21 consecutive days; format: functional, organism-based; conditions: time 21.0 day
MCF7 [14] = assay: Induction of apoptosis in human MCF7 cells assessed as dead cells at 0.25 uM measured after 24 hrs by Annexin-V FITC/PI staining based flow cytometry analysis (Rvb= 0.06%); format: functional
MCF7 [15] = assay: Induction of apoptosis in human MCF7 cells assessed as late apoptotic cells at 0.25 uM measured after 24 hrs by Annexin-V FITC/PI staining based flow cytometry analysis (Rvb= 5.61%); format: functional
MCF7 [16] = assay: Inhibition of cell proliferation in human MCF7 cells assessed as increase in intracellular NO production at 25 uM measured after 2.5 hrs by nitric oxide assay; format: functional, cell-based
MCF7 [17] = assay: Induction of apoptosis in human MCF7 cells assessed as late apoptotic cells at 0.5 uM measured after 24 hrs by Annexin-V FITC/PI staining based flow cytometry analysis (Rvb= 5.61%); format: functional
MCF7 [18] = assay: Induction of cell cycle arrest in human MCF7 cells assessed as accumulation of cells in S phase at 1 uM measured after 24 hrs by propidium iodide staining based flow cytometry analysis (Rvb= 25.71%); format: functional
MCF7 [19] = assay: Induction of cell cycle arrest in human MCF7 cells assessed as accumulation of cells in S phase at 0.25 uM measured after 24 hrs by propidium iodide staining based flow cytometry analysis (Rvb= 25.71%); format: functional
[20] = Toxicity in BALB/c mouse xenografted with human MCF7 cells assessed as effect on kidney at 30 to 60 mg/kg, ip measured after 21 days by hematoxylin and eosin staining based histopathological analysis; format: organism-based; conditions: in vivo, 504 h, dose 30-60 mg/kg, time 21 day
MCF7 [21] = assay: Induction of apoptosis in human MCF7 cells assessed as upregulation of Bad expression at 0.5 to 2 uM measured after 24 hrs by western blot analysis; format: functional, cell-based; conditions: dose 0.5-2 µM
MCF7 [22] = assay: Inhibition of PI3K/AKT signalling pathway in human MCF7 cells assessed as reduction in phosphorylated PI3K expression measured after 24 hrs by western blot analysis; format: cell-based; conditions: dose 0.5-2 µM
MCF7 [23] = assay: Induction of apoptosis in human MCF7 cells assessed as early apoptotic cells at 1 uM measured after 24 hrs by Annexin-V FITC/PI staining based flow cytometry analysis (Rvb= 1.33%); format: functional
MCF7 [24] = assay: Antitumor activity against human MCF7 cells xenografted in BALB/c nude mouse assessed as reduction in tumor weight at 30 to 60 mg/kg, ip administered once every 2 days for 21 consecutive days; format: functional, organism-based; conditions: dose 30-60 mg/kg, time 21.0 day
MCF7 [25] = assay: Induction of cell cycle arrest in human MCF7 cells assessed as accumulation of cells in G2 phase at 1 uM measured after 24 hrs by propidium iodide staining based flow cytometry analysis (Rvb= 18.5%); format: functional
MCF7 [26] = assay: Induction of cell cycle arrest in human MCF7 cells assessed as accumulation of cells in S phase at 0.5 uM measured after 24 hrs by propidium iodide staining based flow cytometry analysis (Rvb= 25.71%); format: functional
MCF7 [27] = assay: Induction of apoptosis in human MCF7 cells assessed as live cells at 0.25 uM measured after 24 hrs by Annexin-V FITC/PI staining based flow cytometry analysis (Rvb= 93.0%); format: functional
MCF7 [28] = assay: Induction of apoptosis in human MCF7 cells assessed as live cells at 1 uM measured after 24 hrs by Annexin-V FITC/PI staining based flow cytometry analysis (Rvb= 93.0%); format: functional
MCF7 [29] = assay: Antitumor activity against human MCF7 cells xenografted in BALB/c nude mouse assessed as reduction in tumor volume at 30 mg/kg, ip administered once every 2 days for 21 consecutive days relative to control; format: functional; parameters: scale not given: the % may be the effect or the level left; conditions: time 21 day
MCF7 [30] = assay: Induction of cell cycle arrest in human MCF7 cells assessed as accumulation of cells in G2 phase at 0.25 uM measured after 24 hrs by propidium iodide staining based flow cytometry analysis (Rvb= 18.5%); format: functional
[31] = Toxicity in BALB/c mouse xenografted with human MCF7 cells assessed as effect on liver at 30 to 60 mg/kg, ip measured after 21 days by hematoxylin and eosin staining based histopathological analysis; format: organism-based; conditions: in vivo, 504 h, dose 30-60 mg/kg, time 21 day
MCF7 [32] = assay: Induction of apoptosis in human MCF7 cells assessed as late apoptotic cells at 1 uM measured after 24 hrs by Annexin-V FITC/PI staining based flow cytometry analysis (Rvb= 5.61%); format: functional

## COc1cc2cc(C(=O)NCc3ccc(F)cc3)c(=O)oc2cc1OCCCOc1no[n+]([O-])c1S(=O)(=O)c1ccccc1
MCF7 [1]
  Ratio IC50: 5
MDA-MB-231
  IC50: 770 nM
[2]
  Activity: Non-Toxic
MCF7 [3]
  Activity: 47.1%
[4]
  Activity: Non-Toxic
[5]
  Activity: Non-Toxic
MCF7 [6]
  Activity: Active
MCF7 [7]
  Activity: 0.196%
MCF7 [8]
  Activity: 40.11%
MCF7 [9]
  Activity: 5.72%
MCF7 [10]
  Activity: Dose-Dependent Effect
MCF7 [11]
  IC50: 370 nM
MCF7 [12]
  inhibition: inactive
MCF7 [13]
  Activity: Dose-Dependent Effect
MCF7 [14]
  Activity: 0.153%
MCF7 [15]
  Activity: 6.53%
MCF7 [16]
  Activity: Active
MCF7 [17]
  Activity: 9.19%
MCF7 [18]
  Activity: 18.16%
MCF7 [19]
  Activity: 20.8%
[20]
  Activity: Non-Toxic
MCF7 [21]
  Activity: Active
MCF7 [22]
  inhibition: Dose-Dependent Effect
MCF7 [23]
  Activity: 9.38%
MCF7 [24]
  Activity: Active
MCF7 [25]
  Activity: 44.96%
MCF7 [26]
  Activity: 19.05%
MCF7 [27]
  Activity: 87.5%
MCF7 [28]
  Activity: 62%
MCF7 [29]
  Activity: 63.3%
MCF7 [30]
  Activity: 25.76%
[31]
  Activity: Non-Toxic
MCF7 [32]
  Activity: 27.2%
